Reference: US7314861B2, “Melanin-concentrating hormone analogs” (priority 2001, dated 2008)
Where a SMILES comes first, the peptide text is derived from it. Bridges are numbered along the chain shown (N, C = ends). [ ]: non-standard residue; d: D form. The star is where a group is joined. Pentanoyl(5-guanidino) = NC(N)=NCCCCC(=O)*

How the values were obtained:
[1] = biological target: human MCH-1R (Homo sapiens, UniProt Q99705); assay: Aequorin bioluminescence functional assay, MCH-1R; settings: for MCH-1R Activation %: % Activation at 10 μM, aequorin functional assay
[2] = biological target: human MCH-R2 (Homo sapiens, UniProt Q969V1); assay: Aequorin bioluminescence functional assay, MCH-2R; settings: for MCH-2R Activation %: % Activation at 10 μM; for MCH-2R Activation % / EC50: aequorin functional assay; for EC50: MCH-2R EC50 (nM); for selective activity at MCH-2R over MCH-1R: greater binding and/or activation at MCH-2R than at MCH-1R
Sequence of human MCH-R2 (Q969V1 whole entry): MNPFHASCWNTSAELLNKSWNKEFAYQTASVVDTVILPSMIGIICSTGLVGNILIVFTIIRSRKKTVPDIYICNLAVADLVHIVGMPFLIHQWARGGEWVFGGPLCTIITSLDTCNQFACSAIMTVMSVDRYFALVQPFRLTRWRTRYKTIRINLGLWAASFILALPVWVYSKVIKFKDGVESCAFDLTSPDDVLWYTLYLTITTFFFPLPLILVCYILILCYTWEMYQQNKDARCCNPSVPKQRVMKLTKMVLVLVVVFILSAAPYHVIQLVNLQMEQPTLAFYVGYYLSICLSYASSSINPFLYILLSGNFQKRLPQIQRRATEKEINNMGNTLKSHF
Experimental: The aequorin bioluminescence assay can be used to measure the activity of G protein-coupled receptors that couple through the Gα protein subunit family consisting of Gq and G11. Such coupling leads to phospholipase C activation, intracellular calcium mobilization and protein kinase C activation.
Following approximately 40 hours of expression the apo-aequorin in the cells was charged for 4 hours with coelenterazine (10 μM) under reducing conditions (300 μM reduced glutathione) in ECB buffer (140 mM NaCl, 20 mM KCl, 20 mM HEPES-NaOH [pH=7.4], 5 mM glucose, 1 mM MgCl2, 1 mM CaCl2, 0.1 mg/ml bovine serum albumin).
The cells were harvested, washed once in ECB medium and resuspended to 500,000 cells/ml. 100 μl of cell suspension (corresponding to 5×10^4 cells) was then injected into the test plate containing MCH or MCH analogs, and the integrated light emission was recorded over 30 seconds, in 0.5 second units. 20 μL of lysis buffer (0.1% final Triton X-100 concentration) was then injected and the integrated light emission recorded over 10 seconds, in 0.5 second units. The “fractional response” values for each well were calculated by taking the ratio of the integrated response to the initial challenge to the total integrated luminescence including the Triton X-100 lysis response.

Sequence of human MCH-1R (Q99705 whole entry): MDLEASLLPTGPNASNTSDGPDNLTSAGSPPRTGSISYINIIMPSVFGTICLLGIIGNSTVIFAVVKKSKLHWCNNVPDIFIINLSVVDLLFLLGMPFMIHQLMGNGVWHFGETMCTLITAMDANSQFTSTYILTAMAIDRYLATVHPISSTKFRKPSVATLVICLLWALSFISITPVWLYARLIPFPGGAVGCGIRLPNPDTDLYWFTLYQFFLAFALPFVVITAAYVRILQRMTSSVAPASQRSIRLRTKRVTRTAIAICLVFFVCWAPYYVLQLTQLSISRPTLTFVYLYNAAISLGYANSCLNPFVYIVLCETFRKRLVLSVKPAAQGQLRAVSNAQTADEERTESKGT

Compound | MCH-1R Activation % ([1]; Table 1) | MCH-2R Activation % ([2]; Table 1) | selective activity at MCH-2R over MCH-1R [2] | further results
CSCC[C@@H]1NC(=O)[C@@H](NC(=O)[C@H](CCCNC(=N)N)NC(C)=O)CSSC[C@@H](C(N)=O)NC(=O)[C@@H]2CCCN2C(=O)[C@H](CCCNC(=N)N)NC(=O)[C@H](Cc2ccc(O)cc2)NC(=O)[C@H](C(C)C)NC(=O)[C@H](CCCNC(=N)N)NC(=O)[C@H](CC(C)C)NC(=O)[C@H](CC(C)C)NC1=O [compound 8] | 106% | 80% | – | –
CSCC[C@@H]1NC(=O)[C@@H](NC(=O)[C@H](CCCNC(=N)N)NC(C)=O)CSSC[C@@H](C(N)=O)NC(=O)[C@@H]2CCCN2C(=O)[C@H](CCCNC(=N)N)NC(=O)[C@H](Cc2ccc(O)cc2)NC(=O)[C@H](C(C)C)NC(=O)[C@H](CCCNC(=N)N)NC(=O)CNC(=O)[C@H](CC(C)C)NC1=O [compound 2] | – | – | – | MCH-1R Activation % ([1]; Table 2): 99%
CSCC[C@@H]1NC(=O)[C@@H](NC(=O)[C@H](CCCNC(=N)N)NC(=O)[C@H](CC(C)C)NC(=O)[C@H](CCSC)NC(=O)[C@H](CC(=O)O)NC(=O)[C@H](Cc2ccccc2)NC(=O)[C@H](C)N)CSSC[C@@H](C(=O)N[C@@H](Cc2c[nH]c3ccccc23)C(=O)N[C@@H](CCC(N)=O)C(=O)N[C@H](C(=O)O)C(C)C)NC(=O)[C@@H]2CCCN2C(=O)[C@H](CCCNC(=N)N)NC(=O)[C@H](Cc2ccc(O)cc2)NC(=O)[C@H](C(C)C)NC(=O)[C@H](CCCNC(=N)N)NC(=O)CNC(=O)[C@H](CC(C)C)NC1=O [compound 41] (H-AFDMLRCMLGRVYRPCWQV-OH; disulfide 7-16; N-terminus and C-terminus assumed) | – | – | – | MCH-1R Activation % ([1]; Table 3): 96%; MCH-2R Activation % ([2]; Table 3): 96%
CSCC[C@@H]1NC(=O)[C@@H](NC(=O)[C@H](CCCNC(=N)N)NC(C)=O)CSSC[C@@H](C(N)=O)NC(=O)[C@@H]2CCCN2C(=O)[C@H](CCCNC(=N)N)NC(=O)[C@H](Cc2ccc(O)cc2)NC(=O)[C@H](C(C)C)NC(=O)[C@H](CCCNC(=N)N)NC(=O)[C@@H](Cc2ccccc2)NC(=O)[C@H](CC(C)C)NC1=O [compound 17] | 5% | 102% | selectively active | EC50 [1]: > 10 µM; EC50 ([2]; Table 1, 293-AEQ17 cells): 25 nM
CSCC[C@@H]1NC(=O)[C@@H](NC(=O)[C@H](CCCNC(=N)N)NC(C)=O)CSSC[C@@H](C(N)=O)NC(=O)[C@@H]2CCCN2C(=O)[C@H](CCCNC(=N)N)NC(=O)[C@H](Cc2ccc(O)cc2)NC(=O)[C@H](C(C)C)NC(=O)[C@H](CCCNC(=N)N)NC(=O)[C@@H](CC2CCCCC2)NC(=O)[C@H](CC(C)C)NC1=O [compound 16] | 0.1% | – | selectively active | EC50 [1]: > 10 µM
CSCC[C@@H]1NC(=O)[C@@H](NC(=O)[C@H](CCCNC(=N)N)NC(C)=O)CSSC[C@@H](C(N)=O)NC(=O)[C@@H]2CCCN2C(=O)[C@H](CCCNC(=N)N)NC(=O)[C@H](Cc2ccc(O)cc2)NC(=O)[C@H](C(C)C)NC(=O)[C@H](CCCCNC(=N)N)NC(=O)CNC(=O)[C@H](CC(C)C)NC1=O [compound 24] | 72% | 43% | – | EC50 ([2]; Table 1, 293-AEQ17 cells): > 10000 nM
CSCC[C@@H]1NC(=O)[C@@H](NC(=O)[C@H](CCCNC(=N)N)NC(C)=O)CSSC[C@@H](C(N)=O)NC(=O)[C@@H]2CCCN2C(=O)[C@H](CCCNC(=N)N)NC(=O)[C@H](Cc2ccc(O)cc2)NC(=O)[C@H](C(C)C)NC(=O)[C@H](CCCNC(=N)N[N+](=O)[O-])NC(=O)CNC(=O)[C@H](CC(C)C)NC1=O [compound 25] | – | 39% | selectively active | EC50 [1]: > 1 µM; EC50 ([2]; Table 1, 293-AEQ17 cells): > 10000 nM
CSCC[C@@H]1NC(=O)[C@@H](NC(=O)[C@H](CCCNC(=N)N)NC(C)=O)CSSC[C@@H](C(N)=O)NC(=O)[C@@H]2CCCN2C(=O)[C@H](CCCNC(=N)N)NC(=O)[C@H](Cc2ccc(O)cc2)NC(=O)[C@H](C(C)C)NC(=O)[C@H](CCCNC(=N)N)NC(=O)[C@H](C)NC(=O)[C@H](CC(C)C)NC1=O [compound 7] | 104% | 97% | – | –
CSCC[C@@H]1NC(=O)[C@@H](NC(=O)[C@H](CCCNC(=N)N)NC(C)=O)CSSC[C@@H](C(N)=O)NC(=O)[C@@H]2CCCN2C(=O)[C@H](CCCNC(=N)N)NC(=O)[C@H](Cc2ccc(O)cc2)NC(=O)[C@H](C(C)C)NC(=O)[C@H](CCCNC(=N)N)NC(=O)[C@H](CO)NC(=O)[C@H](CC(C)C)NC1=O [compound 10] | 104% | 95% | – | –
CSCC[C@@H]1NC(=O)[C@@H](NC(C)=O)CSSC[C@@H](C(N)=O)NC(=O)[C@@H]2CCCN2C(=O)[C@H](CCCNC(=N)N)NC(=O)[C@H](Cc2ccc(O)cc2)NC(=O)[C@H](C(C)C)NC(=O)[C@H](CCCNC(=N)N)NC(=O)CNC(=O)[C@H](CC(C)C)NC1=O [compound 3] | 6.5% | – | – | –
CSCC[C@@H]1NC(=O)[C@@H](NC(=O)[C@H](CCCNC(=N)N)NC(C)=O)CSSC[C@@H](C(N)=O)NC(=O)[C@@H]2CCCN2C(=O)[C@H](CCCNC(=N)N)NC(=O)[C@H](Cc2ccc(O)cc2)NC(=O)[C@H](C(C)C)NC(=O)[C@H](CCCNC(=N)N)NC(=O)C(C)(C)NC(=O)[C@H](CC(C)C)NC1=O [compound 11] | 22% | 104% | selectively active | EC50 ([2]; Table 1, 293-AEQ17 cells): 24 nM
CSCC[C@@H]1NC(=O)[C@@H](NC(=O)[C@H](C)NC(=O)[C@H](CC(C)C)NC(=O)[C@H](CCSC)NC(=O)[C@H](CC(=O)O)NC(=O)[C@H](Cc2ccccc2)NC(=O)[C@@H](N)CC(=O)O)CSSC[C@@H](C(=O)N[C@@H](Cc2c[nH]c3ccccc23)C(=O)N[C@@H](CCC(N)=O)C(=O)N[C@H](C(=O)O)C(C)C)NC(=O)[C@@H]2CCCN2C(=O)[C@H](CCCNC(=N)N)NC(=O)[C@H](Cc2ccc(O)cc2)NC(=O)[C@H](C(C)C)NC(=O)[C@H](CCCNC(=N)N)NC(=O)CNC(=O)[C@H](CC(C)C)NC1=O [compound 46] (H-DFDMLACMLGRVYRPCWQV-OH; disulfide 7-16; N-terminus and C-terminus assumed) | – | – | – | MCH-1R Activation % ([1]; Table 3): 81%; MCH-2R Activation % ([2]; Table 3): 76%
CC(=O)N[C@@H](CCCNC(=N)N)C(=O)N[C@H]1CSSC[C@@H](C(N)=O)NC(=O)[C@@H]2CCCN2C(=O)[C@H](CCCNC(=N)N)NC(=O)[C@H](Cc2ccc(O)cc2)NC(=O)[C@H](C(C)C)NC(=O)[C@H](CCCCNC(=N)N)NC(=O)[C@@H](C)NC(=O)[C@H](CC(C)C)NC(=O)[C@H](C)NC1=O [compound 38] | 20% | 49% | – | EC50 [1]: > 10 µM
CSCC[C@@H]1NC(=O)[C@@H](NC(=O)[C@H](CCCNC(=N)N)NC(=O)[C@H](CC(C)C)NC(=O)[C@H](CCSC)NC(=O)[C@H](CC(=O)O)NC(=O)[C@H](Cc2ccccc2)NC(=O)[C@@H](N)CC(=O)O)CSSC[C@@H](C(=O)N[C@@H](Cc2c[nH]c3ccccc23)C(=O)N[C@@H](CCC(N)=O)C(=O)N[C@H](C(=O)O)C(C)C)NC(=O)[C@@H]2CCCN2C(=O)[C@H](CCCNC(=N)N)NC(=O)[C@H](Cc2ccc(O)cc2)NC(=O)[C@H](C(C)C)NC(=O)[C@H](C)NC(=O)CNC(=O)[C@H](CC(C)C)NC1=O [compound 49] (H-DFDMLRCMLGAVYRPCWQV-OH; disulfide 7-16; N-terminus and C-terminus assumed) | – | – | – | MCH-1R Activation % ([1]; Table 3): 24%; EC50 ([2]; Table 3): > 1000 nM
CSCC[C@@H]1NC(=O)[C@@H](NC(=O)CCCCNC(=N)N)CSSC[C@@H](C(N)=O)NC(=O)[C@@H]2CCCN2C(=O)[C@H](CCCNC(=N)N)NC(=O)[C@H](Cc2ccc(O)cc2)NC(=O)[C@H](C(C)C)NC(=O)[C@H](CCCNC(=N)N)NC(=O)[C@@H](C)NC(=O)[C@H](CC(C)C)NC1=O [compound 34] ({Pentanoyl(5-guanidino)}-CML[dA]RVYRPC-NH2; disulfide 1-10) | – | – | selectively active | –
CSCC[C@@H]1NC(=O)[C@@H](NC(=O)[C@H](CCCNC(=N)N)NC(C)=O)CSSC[C@@H](C(N)=O)NC(=O)[C@@H]2CCCN2C(=O)[C@H](CCCNC(=N)N)NC(=O)[C@H](Cc2ccc(O)cc2)NC(=O)[C@H](C(C)C)NC(=O)[C@H](CCCNC(=N)N)NC(=O)[C@H](c2ccccc2)NC(=O)[C@H](CC(C)C)NC1=O [compound 12] | 0.1% | 80% | selectively active | EC50 [1]: > 10 µM; EC50 ([2]; Table 1, 293-AEQ17 cells): 140 nM
CSCC[C@@H]1NC(=O)[C@@H](NC(=O)[C@H](CCCNC(=N)N)NC(=O)[C@H](CC(C)C)NC(=O)[C@H](CCSC)NC(=O)[C@H](CC(=O)O)NC(=O)[C@H](Cc2ccccc2)NC(=O)[C@@H](N)CC(=O)O)CSSC[C@@H](C(=O)N[C@@H](Cc2c[nH]c3ccccc23)C(=O)N[C@@H](CCC(N)=O)C(=O)N[C@H](C(=O)O)C(C)C)NC(=O)[C@@H]2CCCN2C(=O)[C@H](CCCNC(=N)N)NC(=O)[C@H](C)NC(=O)[C@H](C(C)C)NC(=O)[C@H](CCCNC(=N)N)NC(=O)CNC(=O)[C@H](CC(C)C)NC1=O [compound 51] (H-DFDMLRCMLGRVARPCWQV-OH; disulfide 7-16; N-terminus and C-terminus assumed) | – | – | – | MCH-1R Activation % ([1]; Table 3): 20%; EC50 ([2]; Table 3): > 1000 nM
CSCC[C@H](NC(=O)[C@H](CC(=O)O)NC(=O)[C@H](C)NC(=O)[C@@H](N)CC(=O)O)C(=O)N[C@@H](CC(C)C)C(=O)N[C@@H](CCCNC(=N)N)C(=O)N[C@H]1CSSC[C@@H](C(=O)N[C@@H](Cc2c[nH]c3ccccc23)C(=O)N[C@@H](CCC(N)=O)C(=O)N[C@H](C(=O)O)C(C)C)NC(=O)[C@@H]2CCCN2C(=O)[C@H](CCCNC(=N)N)NC(=O)[C@H](Cc2ccc(O)cc2)NC(=O)[C@H](C(C)C)NC(=O)[C@H](CCCNC(=N)N)NC(=O)CNC(=O)[C@H](CC(C)C)NC(=O)[C@H](CCSC)NC1=O [compound 42] (H-DADMLRCMLGRVYRPCWQV-OH; disulfide 7-16; N-terminus and C-terminus assumed) | – | – | – | MCH-1R Activation % ([1]; Table 3): 97%; MCH-2R Activation % ([2]; Table 3): 102%
